In patent publication US9995734B2, “Human T cell line assay for evaluating the immunologic identity of glatiramer acetate preparations” (Mylan Inc., priority 2013, dated 2018):

Assays:
Donor 3 GMA T-Cell Lines = assay: ATP proliferation assay (CellTiter Glo), Donor 3 GMA T-cell lines, incl. reactivity to non-canonical GA peptides; type: cell-based, human; details: for Mean, ATP proliferation assay: 10 μg/mL
Donor 3 COP T-Cell Lines = assay: ATP proliferation assay (CellTiter Glo), Donor 3 COP T-cell lines, incl. reactivity to non-canonical GA peptides; type: cell-based, human; details: for Reactivity (proliferation), Mean: Day 54 of culture; for Mean, ATP proliferation assay: 10 μg/mL

FFKNIVTPRTPPPSQGK [MBP]
Mean, ATP proliferation assay (Donor 3 GMA T-Cell Lines; T-cell line 165-B2G, Day 40): 3320 | Proliferation (luminescent ATP assay), Mean (Donor 3 GMA T-Cell Lines; T-cell line 165-B5G, 10 μg/mL antigen, Day 55 of culturing, No Antigen Value 846): 871 RLU | Mean, ATP proliferation assay (Donor 3 GMA T-Cell Lines; T-cell line 165-B5G, Day 40): 3398 | Mean, ATP proliferation assay (Donor 3 GMA T-Cell Lines; T-cell line 165-C4G, Day 40): 3482 | Proliferation (luminescent ATP assay), Mean (Donor 3 GMA T-Cell Lines; T-cell line 165-C5G, 10 μg/mL antigen, autologous B-LCL): 469 RLU | Mean, ATP proliferation assay (Donor 3 GMA T-Cell Lines; T-cell line 165-C5G, Day 40): 3401 | Mean, ATP proliferation assay (Donor 3 GMA T-Cell Lines; T-cell line 165-C8G, tested with the Donor 3 COP lines of Table 25): 5279 RLU | Mean, ATP proliferation assay (Donor 3 GMA T-Cell Lines; T-cell line 165-D8G, Day 40): 6909 | Proliferation (luminescent ATP assay), Mean (Donor 3 GMA T-Cell Lines; T-cell line 165-E7G, 10 μg/mL antigen, autologous B-LCL, Day 55): 2116 RLU | Mean, ATP proliferation assay (Donor 3 GMA T-Cell Lines; T-cell line 165-E7G, Day 40): 2989 | Proliferation (luminescent ATP assay), Mean (Donor 3 GMA T-Cell Lines; T-cell line 165-E9G, 1 μg/mL antigen, Day 50 of culturing, No Antigen Value 1742): 1527 RLU | Proliferation (luminescent ATP assay), Mean (Donor 3 GMA T-Cell Lines; T-cell line 165-E9G, 3 μg/mL antigen, Day 50 of culturing, No Antigen Value 1742): 1428 RLU | Proliferation (luminescent ATP assay), Mean (Donor 3 GMA T-Cell Lines; T-cell line 165-E9G, 10 μg/mL antigen, autologous B-LCL): 163 RLU | Mean, ATP proliferation assay (Donor 3 GMA T-Cell Lines; T-cell line 165-E9G, Day 40): 2892 | Proliferation (luminescent ATP assay), Mean (Donor 3 GMA T-Cell Lines; T-cell line 165-E9G, 30 μg/mL antigen, Day 50 of culturing, No Antigen Value 1742): 1208 RLU | Proliferation (luminescent ATP assay), Mean (Donor 3 GMA T-Cell Lines; T-cell line 165-E9G, 10 μpg/mL antigen, Day 50 of culturing, No Antigen Value 1742): 1247 RLU | Mean, ATP proliferation assay (Donor 3 GMA T-Cell Lines; T-cell line 165-F2G, Day 40): 2345 | Proliferation (luminescent ATP assay), Mean (Donor 3 GMA T-Cell Lines; T-cell line 165-F5G, 10 μg/mL antigen, autologous B-LCL): 138 RLU | Mean, ATP proliferation assay (Donor 3 GMA T-Cell Lines; T-cell line 165-F5G, Day 40): 2904 | Mean, ATP proliferation assay (Donor 3 GMA T-Cell Lines; T-cell line 165-F8G, Day 40): 3366 | Proliferation (luminescent ATP assay), Mean (Donor 3 GMA T-Cell Lines; T-cell line 165-F10G, 10 μg/mL antigen, autologous B-LCL): 831 RLU | Mean, ATP proliferation assay (Donor 3 GMA T-Cell Lines; T-cell line 165-F10G, Day 40): 3585 | Proliferation (luminescent ATP assay), Mean (Donor 3 GMA T-Cell Lines; T-cell line 165-H11G, 10 μg/mL antigen, autologous B-LCL): 323 RLU | Mean, ATP proliferation assay (Donor 3 GMA T-Cell Lines; T-cell line 165-H11G, Day 40): 2925 | Reactivity (proliferation), Mean (Donor 3 COP T-Cell Lines; T-cell line 165-B6C, 3 μg/mL antigen, No Antigen 2358): 2205 RLU | Reactivity (proliferation), Mean (Donor 3 COP T-Cell Lines; T-cell line 165-B6C, 10 μg/mL antigen, No Antigen 2358): 2268 RLU | Mean, ATP proliferation assay (Donor 3 COP T-Cell Lines; T-cell line 165-B6C, Day 46, after 3 days): 3216 RLU | Reactivity (proliferation), Mean (Donor 3 COP T-Cell Lines; T-cell line 165-B6C, 100 μg/mL antigen, No Antigen 2358): 2201 RLU | Reactivity (proliferation), Mean (Donor 3 COP T-Cell Lines; T-cell line 165-B10C, 3 μg/mL antigen, No Antigen 2234): 2176 RLU | Reactivity (proliferation), Mean (Donor 3 COP T-Cell Lines; T-cell line 165-B10C, 10 μg/mL antigen, No Antigen 2234): 2320 RLU | Mean, ATP proliferation assay (Donor 3 COP T-Cell Lines; T-cell line 165-B10C, Day 46, after 3 days): 3003 RLU | Reactivity (proliferation), Mean (Donor 3 COP T-Cell Lines; T-cell line 165-B10C, 100 μg/mL antigen, No Antigen 2234): 2272 RLU | Mean, ATP proliferation assay (Donor 3 COP T-Cell Lines; T-cell line 165-C4C, Day 39): 1631 | Proliferation (luminescent ATP assay), Mean (Donor 3 COP T-Cell Lines; T-cell line 165-C7C, 10 μg/mL antigen, autologous B-LCL): 278 RLU | Mean, ATP proliferation assay (Donor 3 COP T-Cell Lines; T-cell line 165-C7C, Day 39): 1673 | Mean, ATP proliferation assay (Donor 3 COP T-Cell Lines; T-cell line 165-D2C, Day 39): 1927 | Reactivity (proliferation), Mean (Donor 3 COP T-Cell Lines; T-cell line 165-D3C, 3 μg/mL antigen, No Antigen 8319): 8037 RLU | Reactivity (proliferation), Mean (Donor 3 COP T-Cell Lines; T-cell line 165-D3C, 10 μg/mL antigen, No Antigen 8319): 8656 RLU | Mean, ATP proliferation assay (Donor 3 COP T-Cell Lines; T-cell line 165-D3C, Day 46, after 3 days): 15482 RLU | Reactivity (proliferation), Mean (Donor 3 COP T-Cell Lines; T-cell line 165-D3C, 100 μg/mL antigen, No Antigen 8319): 8647 RLU | Reactivity (proliferation), Mean (Donor 3 COP T-Cell Lines; T-cell line 165-D11C, 3 μg/mL antigen, No Antigen 4571): 4348 RLU | Reactivity (proliferation), Mean (Donor 3 COP T-Cell Lines; T-cell line 165-D11C, 10 μg/mL antigen, No Antigen 4571): 4301 RLU | Mean, ATP proliferation assay (Donor 3 COP T-Cell Lines; T-cell line 165-D11C, Day 46, after 3 days): 8406 RLU | Reactivity (proliferation), Mean (Donor 3 COP T-Cell Lines; T-cell line 165-D11C, 100 μg/mL antigen, No Antigen 4571): 4020 RLU | Reactivity (proliferation), Mean (Donor 3 COP T-Cell Lines; T-cell line 165-E3C, 3 μg/mL antigen, No Antigen 2797): 2898 RLU | Reactivity (proliferation), Mean (Donor 3 COP T-Cell Lines; T-cell line 165-E3C, 10 μg/mL antigen, No Antigen 2797): 2658 RLU | Mean, ATP proliferation assay (Donor 3 COP T-Cell Lines; T-cell line 165-E3C, Day 46, after 3 days): 7662 RLU | Reactivity (proliferation), Mean (Donor 3 COP T-Cell Lines; T-cell line 165-E3C, 100 μg/mL antigen, No Antigen 2797): 2582 RLU | Reactivity (proliferation), Mean (Donor 3 COP T-Cell Lines; T-cell line 165-F3C, 3 μg/mL antigen, No Antigen 3150): 3369 RLU | Reactivity (proliferation), Mean (Donor 3 COP T-Cell Lines; T-cell line 165-F3C, 10 μg/mL antigen, No Antigen 3150): 3115 RLU | Mean, ATP proliferation assay (Donor 3 COP T-Cell Lines; T-cell line 165-F3C, Day 46, after 3 days): 9849 RLU | Reactivity (proliferation), Mean (Donor 3 COP T-Cell Lines; T-cell line 165-F3C, 100 μg/mL antigen, No Antigen 3150): 3017 RLU | Reactivity (proliferation), Mean (Donor 3 COP T-Cell Lines; T-cell line 165-F6C, 3 μg/mL antigen, No Antigen 2189): 1960 RLU | Reactivity (proliferation), Mean (Donor 3 COP T-Cell Lines; T-cell line 165-F6C, 10 μg/mL antigen, No Antigen 2189): 1977 RLU | Mean, ATP proliferation assay (Donor 3 COP T-Cell Lines; T-cell line 165-F6C, Day 46, after 3 days): 2214 RLU | Reactivity (proliferation), Mean (Donor 3 COP T-Cell Lines; T-cell line 165-F6C, 100 μg/mL antigen, No Antigen 2189): 3672 RLU
